Assay results from ChEMBL document CHEMBL1201862, “PubChem BioAssay data set” (2004).
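96-well plates; 48 h exposure; 5 concentrations. Endpoints by linear interpolation between flanking doses. Not reached: highest tested concentration assigned. At the GI50, growth is halved.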 Active and inactive are the calls of the source. Rule as the data show it: active = GI50 up to about 1.1 µM and inactive = higher.

Columns and labels:
Experiment in all cases: NCI tumour cell line growth inhibition, 48 h
UO-31 = test system: UO-31
SK-MEL-2 = test system: SK-MEL-2
HOP-92 = test system: HOP-92
OVCAR-8 = test system: OVCAR-8
SW-620 = test system: SW-620
CAKI-1 = test system: CAKI-1
SK-MEL-28 = test system: SK-MEL-28
HT-29 = test system: HT-29
KM12 = test system: KM12
SK-OV-3 = test system: SK-OV-3
MCF7 = test system: MCF7
SR = test system: SR
DU-145 = test system: DU-145
Malme-3M = test system: Malme-3M
A498 = test system: A498
OVCAR-3 = test system: OVCAR-3
M14 = test system: M14
CCRF-CEM = test system: CCRF-CEM
SF-268 = test system: SF-268
OVCAR-4 = test system: OVCAR-4
ACHN = test system: ACHN
HCT-116 = test system: HCT-116
EKVX = test system: EKVX
OVCAR-5 = test system: OVCAR-5
HL-60 = test system: HL-60
UACC-62 = test system: UACC-62
K562 = test system: K562
NCI-H226 = test system: NCI-H226
COLO 205 = test system: COLO 205
A549 = test system: A549
SF-295 = test system: SF-295
NCI-H23 = test system: NCI-H23
MDA-MB-231 = test system: MDA-MB-231
SN12C = test system: SN12C
786-0 = test system: 786-0
T47D = test system: T47D
U-251 = test system: U-251
NCI-H522 = test system: NCI-H522
NCI/ADR-RES = test system: NCI/ADR-RES
LOX IMVI = test system: LOX IMVI
MOLT-4 = test system: MOLT-4
HOP-62 = test system: HOP-62
RXF 393 = test system: RXF 393
SNB-19 = test system: SNB-19
NCI-H460 = test system: NCI-H460
TK-10 = test system: TK-10
HCT-15 = test system: HCT-15
MDA-N = test system: MDA-N
IGROV-1 = test system: IGROV-1
HCC 2998 = test system: HCC 2998
MDA-MB-435 = test system: MDA-MB-435
PC-3 = test system: PC-3
SF-539 = test system: SF-539
UACC-257 = test system: UACC-257
SNB-75 = test system: SNB-75
RPMI-8226 = test system: RPMI-8226
SK-MEL-5 = test system: SK-MEL-5

Question: Which results are given for `Cc1ccc(C)c(COCCOCn2c(=O)[nH]c(=O)c3cc(Br)ccc32)c1`?
Answer: GI50 (UO-31): > 100 µM (inactive); GI50 (SK-MEL-2): > 100 µM (inactive); GI50 (HOP-92): > 100 µM (inactive); GI50 (OVCAR-8): 94.2 µM (inactive); GI50 (SW-620): > 100 µM (inactive); GI50 (CAKI-1): 81.1 µM (inactive); GI50 (SK-MEL-28): 39.5 µM (inactive); GI50 (HT-29): 98.2 µM (inactive); GI50 (KM12): > 100 µM (inactive); GI50 (SK-OV-3): > 100 µM (inactive); GI50 (MCF7): > 100 µM (inactive); GI50 (SR): > 100 µM (inactive); GI50 (DU-145): 90.8 µM (inactive); GI50 (Malme-3M): 71.8 µM (inactive); GI50 (A498): > 100 µM (inactive); GI50 (OVCAR-3): > 100 µM (inactive); GI50 (M14): > 100 µM (inactive); GI50 (CCRF-CEM): > 100 µM (inactive); GI50 (SF-268): 52.6 µM (inactive); GI50 (OVCAR-4): 47.8 µM (inactive); GI50 (ACHN): > 100 µM (inactive); GI50 (HCT-116): > 100 µM (inactive); GI50 (EKVX): > 100 µM (inactive); GI50 (OVCAR-5): > 100 µM (inactive); GI50 (HL-60): > 100 µM (inactive); GI50 (UACC-62): 53 µM (inactive); GI50 (K562): > 100 µM (inactive); GI50 (NCI-H226): > 100 µM (inactive); GI50 (COLO 205): > 100 µM (inactive); GI50 (A549): > 100 µM (inactive); GI50 (SF-295): > 100 µM (inactive); GI50 (NCI-H23): > 100 µM (inactive); GI50 (MDA-MB-231): 66.4 µM (inactive); GI50 (SN12C): > 100 µM (inactive); GI50 (786-0): 29.4 µM (inactive); GI50 (T47D): 74.6 µM (inactive); GI50 (U-251): > 100 µM (inactive); GI50 (NCI-H522): 62.4 µM (inactive); GI50 (NCI/ADR-RES): > 100 µM (inactive); GI50 (LOX IMVI): > 100 µM (inactive); GI50 (MOLT-4): > 100 µM (inactive); GI50 (HOP-62): 41.7 µM (inactive); GI50 (RXF 393): > 100 µM (inactive); GI50 (SNB-19): > 100 µM (inactive); GI50 (NCI-H460): > 100 µM (inactive); GI50 (TK-10): 55.3 µM (inactive); GI50 (HCT-15): > 100 µM; GI50 (MDA-N): > 100 µM (inactive); GI50 (IGROV-1): 60.3 µM (inactive); GI50 (HCC 2998): > 100 µM (inactive); GI50 (MDA-MB-435): > 100 µM (inactive); GI50 (PC-3): > 100 µM (inactive); GI50 (SF-539): 99.3 µM (inactive); GI50 (UACC-257): 72.1 µM (inactive); GI50 (SNB-75): 46.6 µM (inactive)

Question: For `COc1ccc(Oc2nc3cc(N)cc(N)c3nc2-c2ccccc2)cc1`, which GI50 (Malme-3M) is on record?
Answer: 55.1 µM (inactive)

Question: What about the GI50 (RPMI-8226) of the same molecule?
Answer: 10.5 µM (inactive)

Question: What about the GI50 (HOP-62) of the same molecule?
Answer: 19.2 µM (inactive)

Question: `CC(C)CNC(=O)CCc1cccc2c1oc1c(CCN)cccc12` was tested. Which GI50 (UO-31) did it give?
Answer: 12.4 µM (inactive)

Question: What about the GI50 (SK-MEL-2) of the same molecule?
Answer: 18.5 µM (inactive)

Question: What about the GI50 (HOP-92) of the same molecule?
Answer: 5.7 µM (inactive)

Question: And the GI50 (OVCAR-8)?
Answer: 18.1 µM (inactive)

Question: And the GI50 (SW-620)?
Answer: 12 µM (inactive)

Question: What about the GI50 (CAKI-1) of the same molecule?
Answer: 12.9 µM (inactive)

Question: And the GI50 (SK-MEL-28)?
Answer: 11.5 µM (inactive)

Question: What about the GI50 (HT-29) of the same molecule?
Answer: 9.31 µM (inactive)

Question: What about the GI50 (KM12) of the same molecule?
Answer: 11.9 µM (inactive)

Question: What about the GI50 (SK-OV-3) of the same molecule?
Answer: 17 µM (inactive)

Question: What about the GI50 (MCF7) of the same molecule?
Answer: 20.6 µM (inactive)

Question: What about the GI50 (SR) of the same molecule?
Answer: 8.43 µM (inactive)

Question: What about the GI50 (DU-145) of the same molecule?
Answer: 17.9 µM (inactive)

Question: And the GI50 (Malme-3M)?
Answer: 16.6 µM (inactive)

Question: And the GI50 (A498)?
Answer: 15 µM (inactive)

Question: What about the GI50 (OVCAR-3) of the same molecule?
Answer: 5.65 µM (inactive)

Question: What about the GI50 (M14) of the same molecule?
Answer: 15.6 µM (inactive)

Question: And the GI50 (CCRF-CEM)?
Answer: 3.9 µM (inactive)

Question: And the GI50 (SF-268)?
Answer: 15 µM (inactive)

Question: And the GI50 (OVCAR-4)?
Answer: 18 µM (inactive)

Question: And the GI50 (ACHN)?
Answer: 12.8 µM (inactive)

Question: What about the GI50 (HCT-116) of the same molecule?
Answer: 9.93 µM (inactive)

Question: And the GI50 (EKVX)?
Answer: 14.3 µM (inactive)

Question: And the GI50 (OVCAR-5)?
Answer: 15.1 µM (inactive)

Question: And the GI50 (HL-60)?
Answer: 2.53 µM (inactive)

Question: What about the GI50 (UACC-62) of the same molecule?
Answer: 17.1 µM (inactive)

Question: And the GI50 (K562)?
Answer: 1.98 µM (inactive)

Question: What about the GI50 (NCI-H226) of the same molecule?
Answer: 16.9 µM (inactive)

Question: And the GI50 (COLO 205)?
Answer: 5.86 µM (inactive)

Question: And the GI50 (A549)?
Answer: 18.5 µM (inactive)

Question: And the GI50 (SF-295)?
Answer: 16.3 µM (inactive)

Question: What about the GI50 (NCI-H23) of the same molecule?
Answer: 12.5 µM (inactive)

Question: And the GI50 (MDA-MB-231)?
Answer: 15 µM (inactive)

Question: What about the GI50 (SN12C) of the same molecule?
Answer: 17.4 µM (inactive)

Question: And the GI50 (786-0)?
Answer: 12.4 µM (inactive)

Question: And the GI50 (T47D)?
Answer: 13.7 µM (inactive)

Question: And the GI50 (U-251)?
Answer: 5.85 µM (inactive)

Question: What about the GI50 (NCI-H522) of the same molecule?
Answer: 13.2 µM (inactive)

Question: What about the GI50 (NCI/ADR-RES) of the same molecule?
Answer: 18.7 µM (inactive)

Question: And the GI50 (LOX IMVI)?
Answer: 12.5 µM (inactive)

Question: And the GI50 (MOLT-4)?
Answer: 11.8 µM (inactive)

Question: And the GI50 (HOP-62)?
Answer: 18.5 µM (inactive)

Question: And the GI50 (RXF 393)?
Answer: 16 µM (inactive)

Question: And the GI50 (SNB-19)?
Answer: 4.35 µM (inactive)

Question: What about the GI50 (NCI-H460) of the same molecule?
Answer: 18.2 µM (inactive)

Question: And the GI50 (SK-MEL-5)?
Answer: 14.2 µM (inactive)

Question: What about the GI50 (HCT-15) of the same molecule?
Answer: 24.1 µM

Question: And the GI50 (MDA-N)?
Answer: 20.9 µM (inactive)

Question: And the GI50 (IGROV-1)?
Answer: 10.2 µM (inactive)

Question: And the GI50 (HCC 2998)?
Answer: 14.2 µM (inactive)

Question: And the GI50 (MDA-MB-435)?
Answer: 12.2 µM (inactive)

Question: And the GI50 (PC-3)?
Answer: 13.4 µM (inactive)

Question: What about the GI50 (SF-539) of the same molecule?
Answer: 16 µM (inactive)

Question: What about the GI50 (UACC-257) of the same molecule?
Answer: 11.7 µM (inactive)

Question: And the GI50 (SNB-75)?
Answer: 5.62 µM (inactive)

Question: Which results are given for `CC[C@@]1(O)C(=O)OCc2c1cc1n(c2=O)Cc2c-1nc1ccccc1c2/C=N\c1ccc(N[C@@H]2c3cc4c(cc3[C@@H](c3cc(OC)c(O)c(OC)c3)[C@H]3C(=O)OC[C@@H]32)OCO4)cc1`?
Answer: GI50 (UO-31): 0.0213 µM (active); GI50 (CAKI-1): < 0.01 µM (active); GI50 (M14): < 0.01 µM (active); GI50 (CCRF-CEM): < 0.01 µM (active); GI50 (HCT-116): 0.0208 µM (active); GI50 (UACC-62): < 0.01 µM (active); GI50 (K562): 0.0505 µM (active); GI50 (A549): 0.0292 µM (active); GI50 (RPMI-8226): 0.0396 µM (active); GI50 (NCI-H23): 0.0118 µM (active); GI50 (T47D): < 0.01 µM (active); GI50 (U-251): 0.0904 µM (active); GI50 (NCI-H522): 0.0254 µM (active); GI50 (LOX IMVI): < 0.01 µM (active); GI50 (HOP-62): < 0.01 µM (active); GI50 (SNB-19): 0.0257 µM (active); GI50 (SK-MEL-5): 0.0288 µM (active); GI50 (SF-539): < 0.01 µM (active); GI50 (UACC-257): 0.189 µM (active)
